# Measurements taken from publication PMC11605156, “Triterpenoids from Ganoderma lucidum inhibit cytochrome P450 enzymes interfering with the metabolic process of specific clinical drugs” (Frontiers in Pharmacology, 2024).
# Key:
# [1] = target: T1, CYP1A2 (Homo sapiens, UniProt P05177); test: CYP1A2 inhibition, probe/drug metabolism in human liver microsomes (LC-MS/MS); conditions: human, human liver microsomes, pH 7.4, probe phenacetin 40 μM, Residual activity (%) CYP1A2, HLM 0.5 mg/mL, phenacetin 40 μM, 30 min
# T1 sequence (P05177 1-516): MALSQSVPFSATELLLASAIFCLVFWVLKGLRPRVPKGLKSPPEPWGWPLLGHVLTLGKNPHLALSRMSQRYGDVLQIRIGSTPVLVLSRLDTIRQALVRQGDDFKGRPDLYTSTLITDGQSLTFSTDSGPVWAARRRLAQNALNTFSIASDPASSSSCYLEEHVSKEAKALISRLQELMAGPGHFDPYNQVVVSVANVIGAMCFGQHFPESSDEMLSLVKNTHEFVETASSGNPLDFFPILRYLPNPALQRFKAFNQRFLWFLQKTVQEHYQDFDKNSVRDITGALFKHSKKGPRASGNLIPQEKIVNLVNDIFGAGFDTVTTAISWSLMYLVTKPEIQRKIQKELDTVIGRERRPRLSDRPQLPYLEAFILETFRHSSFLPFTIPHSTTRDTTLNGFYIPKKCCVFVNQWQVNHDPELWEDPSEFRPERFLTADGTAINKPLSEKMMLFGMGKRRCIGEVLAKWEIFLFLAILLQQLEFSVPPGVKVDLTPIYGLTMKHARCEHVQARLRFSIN
# Description: (§1) The total volume of the in vitro metabolic incubation system is 200 μL. The probe substrate concentration in the system is shown in Supplementary Table S1. […] The reaction sample was preheated in a constant temperature mixer at 37°C. Then NADP^+ was added to the system to initiate the reaction. The reaction time is 30 min, and 100 μL acetonitrile will be added on time to quickly terminate the reaction, followed by centrifugation at 4°C and 20,000 g for 20 min. The supernatant was analyzed using liquid chromatography tandem mass spectrometry (LC-MS/MS), and the activity of CYP enzymes was evaluated by the generation of probe metabolites. The mass spectrometry information of probe substrates is shown in Supplementary Table S3.
# (§2) The isolated triterpenoids (1–66) were used to establish a compounds library. The inhibitory effects of 66 triterpenoids from G. lucidum on seven subtypes of CYP enzymes (CYP1A2, 2A6, 2D6, 2B6, 2C9, 2C19, 3A4) were evaluated followed the above-mentioned experimental procedures.
# (§3) For 16 clinical drugs metabolized by CYP enzymes, potential DDI studies were conducted on triterpenoids (6, 25) of G. lucidum, and IC50 values were measured.
# (§4) Clinical drugs: Phenacetin, melatonin, clozapine and riluzole are metabolized by CYP1A2. Bupropion, artemisinin, efavirenz and sertraline are metabolized by CYP2B6. Diclofenac, valsartan, glimepiride and glibenclamide are metabolized by CYP2C9. Midazolam, imatinib, simvastatin and diltiazem are metabolized by CYP3A4.
# (§5) Table S1. The information of probes for CYPs activity assay
# (§6) Table S2. Information of clinical drugs
# [2] = target: T2, CYP2B6 (Homo sapiens, UniProt P20813); test: CYP2B6 inhibition, probe/drug metabolism in human liver microsomes
# T2 sequence (P20813 1-491): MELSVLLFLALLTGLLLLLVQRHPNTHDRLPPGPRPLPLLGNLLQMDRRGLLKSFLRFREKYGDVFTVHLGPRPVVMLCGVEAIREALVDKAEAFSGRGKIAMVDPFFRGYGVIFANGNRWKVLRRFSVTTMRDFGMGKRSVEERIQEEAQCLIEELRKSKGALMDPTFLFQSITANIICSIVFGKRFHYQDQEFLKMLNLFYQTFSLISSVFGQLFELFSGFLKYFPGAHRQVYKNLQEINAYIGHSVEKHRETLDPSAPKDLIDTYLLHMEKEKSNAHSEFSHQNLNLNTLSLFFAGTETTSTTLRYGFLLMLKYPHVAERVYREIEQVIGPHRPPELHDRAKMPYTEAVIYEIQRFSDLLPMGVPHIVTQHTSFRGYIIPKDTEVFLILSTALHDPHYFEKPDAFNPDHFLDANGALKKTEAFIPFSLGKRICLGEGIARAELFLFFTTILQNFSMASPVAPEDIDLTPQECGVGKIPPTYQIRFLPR
# Description: as §1, §2, §3, §4, §5, §6
# [3] = target: CYP3A4 (Homo sapiens, UniProt P08684); test: CYP3A4 inhibition, probe/drug metabolism in human liver microsomes
# Sequence of CYP3A4 (P08684 whole entry): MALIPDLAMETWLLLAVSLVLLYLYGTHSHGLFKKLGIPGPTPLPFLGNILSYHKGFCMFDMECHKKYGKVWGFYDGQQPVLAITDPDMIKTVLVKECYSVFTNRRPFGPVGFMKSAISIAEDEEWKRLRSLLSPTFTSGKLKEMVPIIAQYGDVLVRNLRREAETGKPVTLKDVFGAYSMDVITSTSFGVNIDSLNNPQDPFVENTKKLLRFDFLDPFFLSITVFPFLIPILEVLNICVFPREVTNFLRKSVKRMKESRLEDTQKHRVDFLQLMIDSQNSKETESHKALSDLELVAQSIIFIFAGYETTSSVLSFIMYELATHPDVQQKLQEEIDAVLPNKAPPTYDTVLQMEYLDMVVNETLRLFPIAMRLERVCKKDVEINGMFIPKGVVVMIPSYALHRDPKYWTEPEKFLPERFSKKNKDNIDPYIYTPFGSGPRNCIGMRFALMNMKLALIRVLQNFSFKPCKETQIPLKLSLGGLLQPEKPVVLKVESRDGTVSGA
# Description: as §1, §2, §3, §4, §5, §6
# [4] = target: CYP2C19 (Homo sapiens, UniProt P33261); test: CYP2C19 inhibition, S-mephenytoin probe in human liver microsomes
# Sequence of CYP2C19 (P33261 whole entry): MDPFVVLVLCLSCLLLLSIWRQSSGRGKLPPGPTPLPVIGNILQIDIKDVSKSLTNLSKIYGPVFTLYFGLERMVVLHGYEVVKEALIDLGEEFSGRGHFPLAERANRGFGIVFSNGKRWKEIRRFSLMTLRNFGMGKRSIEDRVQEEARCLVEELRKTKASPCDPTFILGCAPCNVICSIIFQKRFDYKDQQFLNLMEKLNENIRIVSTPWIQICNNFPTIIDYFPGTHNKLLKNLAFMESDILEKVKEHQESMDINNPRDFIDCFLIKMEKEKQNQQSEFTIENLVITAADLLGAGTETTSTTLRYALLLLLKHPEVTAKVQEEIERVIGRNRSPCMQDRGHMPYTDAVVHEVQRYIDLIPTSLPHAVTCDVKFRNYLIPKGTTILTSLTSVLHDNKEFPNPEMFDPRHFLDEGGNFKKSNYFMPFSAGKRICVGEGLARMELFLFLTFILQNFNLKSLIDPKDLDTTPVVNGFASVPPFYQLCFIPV
# Description: as §1, §2, §5
# [5] = system: CYP3A4, CYP2B6, CYP2C9; test: in vitro; assay type: in vitro ADME; conditions: human
# Description: Bupropion, artemisinin, efavirenz and sertraline are metabolized by CYP2B6. Diclofenac, valsartan, glimepiride and glibenclamide are metabolized by CYP2C9. Midazolam, imatinib, simvastatin and diltiazem are metabolized by CYP3A4.
# as §6
# CYP subtype Drugs Metabolite Concentration Incubation time
# CYP1A2 Melatonin 6-hydroxyl-melatonin 5 μM 30 min
# Clozaril Demethyl-clozaril 10 μM 20 min
# Riluzole Hydroxy-riluzole 5 μM 60 min
# Phenacetin Deacetyl-phenacetin 40 μM 30 min
# CYP2B6 Bupropion 4'-hydroxyl-bupropion 75 μM 30 min
# Artemisinin Dihydroartemisinin 10 μM 30 min
# Sertraline Demethyl-sertraline 5 μM 30 min
# Efavirenz 8-hydroxyl-efavirenz 20 μM 30 min
# CYP2C9 Diclofenac 4'-hydroxyl-diclofenac 4 μM 30 min
# Valsartan 4-hydroxyl-valsartan 30 μM 30 min
# Glimepiride Hydroxyl-glimepiride 50 μM 30 min
# Glibenclamide Hydroxyl-glibenclamide 50 μM 30 min
# CYP3A4 Midazolam 1'-hydroxyl-midazolam 5 μM 30 min
# Simvastatin 6'-β-hydroxyl-simvastatin 10 μM 30 min
# Diltiazem Demethyl-diltiazem 10 μM 30 min
# Imatinib Demethyl-imatinib 5 μM 30 min
structure (smiles),measurement,setting,value
"CC(CCC(O)C(C)(O)CO)C1CCC2(C)C3=C(C(=O)CC12C)C1(C)CCC(=O)C(C)(C)C1CC3 (centres unmarked) [Compound 25, ganodrol C]",activity at 30 min,[1],104 ± 18.9%
same,IC50,"[2]; IC50 against CYP 2B6, substrate bupropion 75 μM, HLM",25.3 ± 3.7 µM
same,IC50,"[2]; IC50 against metabolism of artemisinin mediated by CYP2B6, substrate artemisinin 10 μM, 30 min",21.5 ± 3.44 µM
same,IC50,"[2]; IC50 against metabolism of efavirenz mediated by CYP2B6, substrate efavirenz 20 μM, 30 min",24.3 ± 3.05 µM
same,IC50,"[2]; IC50 against metabolism of sertraline mediated by CYP2B6, substrate sertraline 5 μM, 30 min",25.1 ± 2.86 µM
same,activity at 30 min,"[2]; human, human liver microsomes, pH 7.4, probe bupropion 75 μM, Residual activity (%) CYP2B6, HLM 0.5 mg/mL, bupropion 75 μM, 30 min",56.8 ± 2.04%
same,IC50,"[3]; IC50 against CYP 3A4, substrate midazolam 5 μM, HLM",4.78 µM
same,IC50,"[3]; IC50 against metabolism of diltiazem mediated by CYP3A4, substrate diltiazem 10 μM, 30 min",5.12 ± 0.56 µM
same,IC50,"[3]; IC50 against metabolism of imatinib mediated by CYP3A4, substrate imatinib 5 μM, 30 min",7.57 ± 0.2 µM
same,IC50,"[3]; IC50 against metabolism of simvastatin mediated by CYP3A4, substrate simvastatin 10 μM, 30 min",4.5 ± 0.48 µM
same,activity at 30 min,"[3]; human, human liver microsomes, pH 7.4, probe midazolam 5 μM, Residual activity (%) CYP3A4, HLM 0.5 mg/mL, midazolam 5 μM, 30 min",30.1 ± 1.54%
same,IC50,[4],15.4 µM
same,activity at 30 min,"[4]; human, human liver microsomes, pH 7.4, probe S-mephenytoin 50 μM, Residual activity (%) CYP2C19, HLM 0.5 mg/mL, S-mephenytoin 50 μM, 30 min",39.2 ± 4.83%
same,IC50 at 30 min,[5],4.5 to 25.3 µM
